Reference: PMC7176092, “Development of the first in vivo GPR17 ligand through an iterative drug discovery pipeline: A novel disease-modifying strategy for multiple sclerosis” (PLoS ONE, 2020)
Read-outs that look alike come from different tables or passages of the source.

Columns and labels:
[1] = biological target: T1, CysLT2 (Homo sapiens, UniProt Q9NS75); test: Binding assay CysLT2; details: 100 nM
T1 construct: Eurofins Cerep (external service)
T1 sequence (Q9NS75 1-346): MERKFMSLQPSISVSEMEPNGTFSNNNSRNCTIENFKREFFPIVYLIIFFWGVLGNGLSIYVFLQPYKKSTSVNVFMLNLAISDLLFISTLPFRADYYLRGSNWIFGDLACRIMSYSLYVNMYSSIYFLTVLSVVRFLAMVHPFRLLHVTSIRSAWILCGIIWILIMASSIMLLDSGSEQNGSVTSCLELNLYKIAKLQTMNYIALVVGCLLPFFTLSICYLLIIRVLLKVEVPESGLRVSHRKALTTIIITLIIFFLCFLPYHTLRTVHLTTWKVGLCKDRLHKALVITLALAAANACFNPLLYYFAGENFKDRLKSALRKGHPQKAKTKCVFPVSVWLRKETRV

[2] = biological target: T2, ADR3 (Homo sapiens, UniProt P13945); test: Binding assay ADR3 (reference Alprenolol); details: 100 nM
T2 construct: Eurofins Cerep (external service)

[3] = biological target: T3, CCR6 (Homo sapiens, UniProt P51684); test: Cellular functional assay CCR6
T3 sequence (P51684 1-374): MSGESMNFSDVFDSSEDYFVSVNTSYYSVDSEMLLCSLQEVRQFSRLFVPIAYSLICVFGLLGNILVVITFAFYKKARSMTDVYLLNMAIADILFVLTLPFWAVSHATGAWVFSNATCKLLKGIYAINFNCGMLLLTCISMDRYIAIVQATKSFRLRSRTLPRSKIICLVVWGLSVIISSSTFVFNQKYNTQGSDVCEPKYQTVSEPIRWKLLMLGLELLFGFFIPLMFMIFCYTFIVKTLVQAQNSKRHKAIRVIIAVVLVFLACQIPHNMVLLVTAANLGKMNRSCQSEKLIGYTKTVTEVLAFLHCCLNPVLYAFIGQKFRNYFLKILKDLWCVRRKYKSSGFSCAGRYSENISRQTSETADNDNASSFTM

[4] = biological target: T4, CCR1 (Homo sapiens, UniProt P32246); test: Binding assay CCR1; details: 100 nM
T4 construct: Eurofins Cerep (external service)
T4 sequence (P32246 1-355): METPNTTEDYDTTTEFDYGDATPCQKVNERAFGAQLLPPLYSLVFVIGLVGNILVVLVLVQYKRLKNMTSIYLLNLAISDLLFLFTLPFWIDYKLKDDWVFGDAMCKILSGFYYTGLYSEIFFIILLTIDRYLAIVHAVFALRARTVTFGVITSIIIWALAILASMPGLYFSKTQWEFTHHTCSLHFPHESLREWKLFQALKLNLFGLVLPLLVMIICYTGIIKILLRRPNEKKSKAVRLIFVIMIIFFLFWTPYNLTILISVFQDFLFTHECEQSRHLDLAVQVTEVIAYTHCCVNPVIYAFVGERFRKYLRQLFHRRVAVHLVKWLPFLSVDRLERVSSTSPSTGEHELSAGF

[5] = biological target: T5, ADR1 (Homo sapiens, UniProt P08588); test: Binding assay ADR1 (reference atenolol); details: 100 nM
T5 construct: Eurofins Cerep (external service)

[6] = biological target: T6, CysLT1 (Homo sapiens, UniProt Q9Y271); test: Binding assay CysLT1; details: 100 nM
T6 construct: Eurofins Cerep (external service)
T6 sequence (Q9Y271 1-337): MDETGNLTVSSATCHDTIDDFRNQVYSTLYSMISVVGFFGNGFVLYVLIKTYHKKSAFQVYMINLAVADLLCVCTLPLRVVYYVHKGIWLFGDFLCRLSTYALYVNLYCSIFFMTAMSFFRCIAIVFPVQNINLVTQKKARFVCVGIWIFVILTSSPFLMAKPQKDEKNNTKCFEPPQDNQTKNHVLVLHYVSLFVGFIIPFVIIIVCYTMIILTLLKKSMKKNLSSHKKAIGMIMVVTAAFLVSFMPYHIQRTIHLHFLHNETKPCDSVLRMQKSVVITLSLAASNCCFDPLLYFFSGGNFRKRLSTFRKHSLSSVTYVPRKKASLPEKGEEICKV

[7] = biological target: T7, AT1 (Homo sapiens, UniProt P30556); test: Binding assay AT1; details: 100 nM
T7 construct: Eurofins Cerep (external service)
T7 sequence (P30556 1-359): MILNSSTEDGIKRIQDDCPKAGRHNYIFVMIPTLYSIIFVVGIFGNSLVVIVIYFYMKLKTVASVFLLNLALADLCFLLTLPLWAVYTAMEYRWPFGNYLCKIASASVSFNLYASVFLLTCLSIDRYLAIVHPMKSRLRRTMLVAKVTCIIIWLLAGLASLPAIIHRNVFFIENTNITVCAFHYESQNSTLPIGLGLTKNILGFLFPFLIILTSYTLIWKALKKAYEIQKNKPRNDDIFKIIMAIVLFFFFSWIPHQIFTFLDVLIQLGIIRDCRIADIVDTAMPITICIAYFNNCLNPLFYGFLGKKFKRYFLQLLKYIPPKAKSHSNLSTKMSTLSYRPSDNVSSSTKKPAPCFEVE

[8] = biological target: CXCR4 (Homo sapiens, UniProt P61073); test: Cellular functional assay CXCR4
[9] = mean of 2, read-out: % Of control specific binding, Mean
[10] = read-out: % Inhibition of control specific binding
[11] = single replicates 1 and 2, 0.1 µM
[12] = single replicates 1 and 2, read-out: % Of control specific binding
[13] = antagonist effect, 100 nM, single replicates 1st and 2nd, 0.1 µM
[14] = read-out: % Inhibition of control agonist response
[15] = read-out: Agonist Response (% of Control), Mean, antagonist effect, 100 nM, mean of 2
[16] = read-out: Agonist Response (% of Control), antagonist effect, 100 nM, single replicates 1st and 2nd

T5 sequence (P08588 whole entry): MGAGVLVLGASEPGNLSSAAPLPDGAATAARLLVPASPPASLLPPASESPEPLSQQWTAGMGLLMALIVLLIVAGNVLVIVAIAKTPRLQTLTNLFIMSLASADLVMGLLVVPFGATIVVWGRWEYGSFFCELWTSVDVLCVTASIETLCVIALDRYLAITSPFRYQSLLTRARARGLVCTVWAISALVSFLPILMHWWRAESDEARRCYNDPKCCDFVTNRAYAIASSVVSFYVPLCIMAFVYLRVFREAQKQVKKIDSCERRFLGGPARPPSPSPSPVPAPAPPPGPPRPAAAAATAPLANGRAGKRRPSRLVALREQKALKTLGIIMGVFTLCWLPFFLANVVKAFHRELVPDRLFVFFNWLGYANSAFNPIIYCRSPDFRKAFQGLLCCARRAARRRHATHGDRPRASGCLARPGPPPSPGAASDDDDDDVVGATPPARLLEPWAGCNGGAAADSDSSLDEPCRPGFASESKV
Chain of CXCR4 (P61073 whole entry): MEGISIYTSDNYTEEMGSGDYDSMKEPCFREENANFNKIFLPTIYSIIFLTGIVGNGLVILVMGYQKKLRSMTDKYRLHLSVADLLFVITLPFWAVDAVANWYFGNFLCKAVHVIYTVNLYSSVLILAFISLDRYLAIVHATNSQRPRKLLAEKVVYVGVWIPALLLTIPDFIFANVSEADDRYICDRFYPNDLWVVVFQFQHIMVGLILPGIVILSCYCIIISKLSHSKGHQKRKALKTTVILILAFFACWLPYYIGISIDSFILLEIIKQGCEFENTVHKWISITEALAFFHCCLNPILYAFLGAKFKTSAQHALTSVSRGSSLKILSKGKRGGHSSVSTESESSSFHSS
T2 sequence (P13945 whole entry): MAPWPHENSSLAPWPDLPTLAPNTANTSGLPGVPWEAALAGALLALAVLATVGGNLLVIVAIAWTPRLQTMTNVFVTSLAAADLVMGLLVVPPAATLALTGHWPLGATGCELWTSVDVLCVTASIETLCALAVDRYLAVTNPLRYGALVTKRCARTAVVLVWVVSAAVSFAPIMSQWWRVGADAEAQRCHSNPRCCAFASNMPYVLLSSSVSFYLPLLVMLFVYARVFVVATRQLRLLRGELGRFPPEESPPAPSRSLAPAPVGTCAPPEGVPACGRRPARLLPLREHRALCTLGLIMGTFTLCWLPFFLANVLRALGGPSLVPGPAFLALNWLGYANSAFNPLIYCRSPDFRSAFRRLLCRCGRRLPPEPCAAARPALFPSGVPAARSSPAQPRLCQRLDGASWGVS

Q: Which remaining activity at 0.1 µM [1, 9] does the source give for `Cc1ccc(-c2nnc(SCC(=O)Nc3nccs3)[nH]2)cc1` [Compound 9] here?
A: 101%

Q: And the inhibition at 0.1 µM [1, 10]?
A: -1%

Q: And the “% Of control specific binding” value [1, 11]?
A: 103.4%

Q: What about the remaining activity at 0.1 µM [1, 12] of the same compound?
A: 97.9%

Q: And the remaining activity at 0.1 µM [2, 9]?
A: 99.1%

Q: And the inhibition at 0.1 µM [2, 10]?
A: 1%

Q: And the “% Of control specific binding” value [2, 11]?
A: 95.7%

Q: What about the remaining activity at 0.1 µM [2, 12] of the same compound?
A: 102%

Q: And the “Agonist Response (% of Control)” value [3, 13]?
A: 105.9%

Q: What about the inhibition at 0.1 µM [3, 14] of the same compound?
A: -0.3%

Q: And the activity at 0.1 µM [3, 15]?
A: 106%

Q: And the activity at 0.1 µM [3, 16]?
A: 105%

Q: What about the remaining activity at 0.1 µM [4, 9] of the same compound?
A: 108%

Q: And the inhibition at 0.1 µM [4, 10]?
A: -8%

Q: And the “% Of control specific binding” value [4, 11]?
A: 109%

Q: What about the remaining activity at 0.1 µM [4, 12] of the same compound?
A: 108%

Q: And the remaining activity at 0.1 µM [5, 9]?
A: 91.5%

Q: And the inhibition at 0.1 µM [5, 10]?
A: 9%

Q: And the “% Of control specific binding” value [5, 11]?
A: 88.9%

Q: What about the remaining activity at 0.1 µM [5, 12] of the same compound?
A: 94%

Q: And the remaining activity at 0.1 µM [6, 9]?
A: 97.6%

Q: And the inhibition at 0.1 µM [6, 10]?
A: 2%

Q: And the “% Of control specific binding” value [6, 11]?
A: 105.4%

Q: And the remaining activity at 0.1 µM [6, 12]?
A: 89.7%

Q: What about the remaining activity at 0.1 µM [7, 9] of the same compound?
A: 110%

Q: What about the inhibition at 0.1 µM [7, 10] of the same compound?
A: -10%

Q: And the “% Of control specific binding” value [7, 11]?
A: 108.6%

Q: What about the remaining activity at 0.1 µM [7, 12] of the same compound?
A: 112%

Q: What about the “Agonist Response (% of Control)” value [8, 13] of the same compound?
A: 70.8%

Q: And the inhibition at 0.1 µM [8, 14]?
A: 4.4%

Q: And the activity at 0.1 µM [8, 15]?
A: 78.2%

Q: What about the activity at 0.1 µM [8, 16] of the same compound?
A: 85.6%
